Measured values as given in ChEMBL document CHEMBL5241075, “Advancement of chimeric hybrid drugs to cure malaria infection: An overview with special emphasis on endoperoxide pharmacophores” (Eur J Med Chem, 2021).
Converted amounts (≈) assume the structure as drawn.

Assays:
Plasmodium falciparum [1] = assay: Antiplasmodial activity against Plasmodium falciparum K1; format: functional, organism-based; settings: Plasmodium falciparum, K1
Plasmodium falciparum [2] = assay: Antiplasmodial activity against Plasmodium falciparum D10; format: functional, organism-based; settings: Plasmodium falciparum, D10
Plasmodium falciparum [3] = assay: Resistance index, ratio of IC50 for antiplasmodial activity against Plasmodium falciparum K1 to IC50 for antiplasmodial activity against Plasmodium falciparum D10; format: functional
HeLa = assay: Antiproliferative activity against human HeLa cells assessed as cell growth inhibition; format: functional, cell-based; settings: Homo sapiens, HeLa
[4] = Therapeutic index, ratio of IC50 for antiproliferative activity against human HeLa cells to IC50 for antiplasmodial activity against Plasmodium falciparum K1; format: toxicity, cell-based; settings: HeLa cells, read-out: Ratio IC50
Hemozoin = assay: Inhibition of Beta-hematin in Plasmodium falciparum
Plasmodium falciparum [5] = assay: Antiplasmodial activity against Plasmodium falciparum 3D7; format: functional, organism-based
Plasmodium falciparum [6] = assay: Antimalarial activity against chloroquine resistant Plasmodium falciparum FcB1; format: functional, organism-based
Plasmodium falciparum [7] = assay: Antiplasmodial activity against Plasmodium falciparum FcM29; format: functional, organism-based
Plasmodium falciparum [8] = assay: Antiplasmodial activity against Plasmodium falciparum Nigerian; format: functional, organism-based
Plasmodium falciparum [9] = assay: Antiplasmodial activity against Plasmodium falciparum NF54; format: functional, organism-based
Plasmodium falciparum [10] = assay: Antiplasmodial activity against Plasmodium falciparum DD2; format: functional, organism-based
Plasmodium falciparum [11] = assay: Antiplasmodial activity against chloroquine resistant Plasmodium falciparum; format: functional, organism-based
Plasmodium falciparum [12] = assay: Antiplasmodial activity against Plasmodium falciparum W2; format: functional, organism-based
Plasmodium falciparum [13] = assay: Antiplasmodial activity against Plasmodium falciparum D6; format: functional, organism-based
[14] = Stability of compound at pH 2 assessed as half life; format: physicochemical; settings: buffer
[15] = read-out: ED50 (the source's name)

Which results are given for `C[C@@H]1CC[C@H]2[C@@H](C)C(OCc3ccc(C(=O)N(CCNc4ccnc5cc(Cl)ccc45)CC(=O)NC4CCCCC4)cc3)O[C@@H]3O[C@]4(C)CC[C@@H]1[C@]32OO4` (stereo partly specified)?
IC50 (Plasmodium falciparum [1]): 23 nM; IC50 (Plasmodium falciparum [2]): 26 nM; Ratio IC50 (Plasmodium falciparum [3]): 1; IC50 (HeLa): 286 nM; selectivity ratio [4]: 12; IC50 (Hemozoin): 0.45 equiv

For `C1CCC2(CC1)OOC1(CCN(c3nc(N4CCOCC4)nc(N4CCOCC4)n3)CC1)OO2`, which IC50 (Plasmodium falciparum [5]) is on record?
Its IC50 is 5.68 nM.

With `COc1cc(NC(C)CCCNC2CCC3(CC2)OO[C@@]2(C)CCC(C(C)C)=C[C@H]2O3)c2ncccc2c1` (stereo partly specified) as the compound, how does the IC50 (Plasmodium falciparum [6]) read?
The IC50 was 108 nM.

What about the IC50 (Plasmodium falciparum [7]) of the same compound?
The IC50 was 108 nM.

What about the IC50 (Plasmodium falciparum [8]) of the same compound?
Its IC50 is 108 nM.

For `COc1ccc2nc3cc(Cl)ccc3c(N3CCN(CCO[C@H]4O[C@@H]5O[C@]6(C)CC[C@H]7[C@H](C)CC[C@@H]([C@H]4C)[C@@]57OO6)CC3)c2c1`, which IC50 (Plasmodium falciparum [9]) is on record?
The IC50 was 267 nM.

What about the IC50 (Plasmodium falciparum [10]) of the same compound?
The IC50 was 430 nM.

Which IC50 (Plasmodium falciparum [11]) does the source give for `C[C@@H]1CC[C@H]2[C@@H](C)C(Oc3ccccc3)O[C@@H]3O[C@]4(C)CC[C@@H]1[C@]32OO4` (stereo partly specified) here?
The IC50 was 5.3 nM.

For `CCCC1O[C@@H]2O[C@]3(C)CC[C@H]4[C@H](C)CC[C@@H]([C@H]1C)[C@@]24OO3` (stereo partly specified), which IC50 (Plasmodium falciparum [12]) is on record?
The IC50 was 0.16 ng/mL.

And the IC50 (Plasmodium falciparum [13])?
The IC50 was 0.41 ng/mL (≈ 1.32 nM).

Which IC50 (Plasmodium falciparum [11]) does the source give for `C[C@@H]1CC[C@@H]2[C@]34OO[C@@](C)(CC[C@@H]13)O[C@H]4OC(Nc1ncccn1)[C@@]2(C)Br` (stereo partly specified) here?
The IC50 was 0.16 ng/mL.

What does the source list for `C[C@@H]1CC[C@H]2[C@@H](C)C(O)(C(F)(F)F)O[C@@H]3O[C@]4(C)CC[C@@H]1[C@]32OO4` (stereo partly specified)?
IC50 (Plasmodium falciparum [11]): 9.4 nM; half-life [14]: 31.7 days

With `Clc1cc(NCCCCNC2CCC3(CC2)OO[C@@]2(c4ccccc4)CC(c4ccccc4)=C[C@H]2O3)c2ncccc2c1` (stereo partly specified) as the compound, how does the IC50 (Plasmodium falciparum [6]) read?
The IC50 was 41 nM.

And the IC50 (Plasmodium falciparum [7])?
Its IC50 is 41 nM.

What about the IC50 (Plasmodium falciparum [8]) of the same compound?
Its IC50 is 41 nM.

Which results are given for `COc1ccc2nc3cc(Cl)ccc3c(N3CCN(CCO[C@H]4O[C@@H]5O[C@]6(C)CC[C@H]7[C@H](C)CC[C@@H]([C@H]4C)[C@@]57OO6)C(C)C3)c2c1` (stereo partly specified)?
IC50 (Plasmodium falciparum [9]): 17 nM; IC50 (Plasmodium falciparum [10]): 41.3 nM

For `CCOP(=O)(CCCN(O)C(=O)CCC(=O)N(CCCCNC(=O)CC[C@H]1O[C@@H]2O[C@]3(C)CC[C@H]4[C@H](C)CC[C@@H]([C@H]1C)C24OO3)CCCNC(=O)CC[C@@H]1O[C@H]2O[C@@]3(C)CC[C@@H]4[C@@H](C)CC[C@H]([C@@H]1C)C24OO3)OCC`, which IC50 (Plasmodium falciparum [6]) is on record?
The IC50 was 650 nM.

Which results are given for `C[C@@H]1CC[C@H]2[C@@H](C)C(OCc3ccc(C(=O)N(CCNc4ccnc5cc(Cl)ccc45)CC(=O)NC(C)(C)C)cc3)O[C@@H]3O[C@]4(C)CC[C@@H]1[C@]32OO4` (stereo partly specified)?
IC50 (Plasmodium falciparum [1]): 19 nM; IC50 (Plasmodium falciparum [2]): 27 nM; Ratio IC50 (Plasmodium falciparum [3]): 0.6; IC50 (HeLa): 496 nM; selectivity ratio [4]: 26; IC50 (Hemozoin): 0.44 equiv

Which IC50 (Plasmodium falciparum [6]) does the source give for `CCOP(=O)(CCCN(O)C(=O)CC[C@H]1O[C@@H]2O[C@]3(C)CC[C@H]4[C@H](C)CC[C@@H]([C@H]1C)C24OO3)OCC` here?
The IC50 was 28000 nM.

With `Clc1cc(NCCNC2CCC3(CC2)OO[C@@]2(c4ccccc4)CC(c4ccccc4)=C[C@H]2O3)c2ncccc2c1` (mixture of isomers) as the compound, how does the IC50 (Plasmodium falciparum [6]) read?
The IC50 was 22 nM.

And the IC50 (Plasmodium falciparum [7])?
Its IC50 is 22 nM.

What about the IC50 (Plasmodium falciparum [8]) of the same compound?
Its IC50 is 22 nM.

For `Clc1cc(NCCCN[C@H]2C[C@H]3CCC4(OO[C@@]5(c6ccccc6)CC(c6ccccc6)=C[C@H]5O4)[C@H]3C2)c2ncccc2c1` (stereo partly specified), which IC50 (Plasmodium falciparum [6]) is on record?
Its IC50 is 63 nM.

And the IC50 (Plasmodium falciparum [7])?
Its IC50 is 63 nM.

What about the IC50 (Plasmodium falciparum [8]) of the same compound?
Its IC50 is 63 nM.

Which IC50 (Plasmodium falciparum [6]) does the source give for `Clc1cc(NCCCNC2CCC3(CC2)OO[C@@]2(c4ccccc4)CC(c4ccccc4)=C[C@H]2O3)c2ncccc2c1` (mixture of isomers) here?
Its IC50 is 41 nM.

What about the IC50 (Plasmodium falciparum [7]) of the same compound?
The IC50 was 41 nM.

What about the IC50 (Plasmodium falciparum [8]) of the same compound?
Its IC50 is 41 nM.

For `C[C@H]1[C@@H](OC(=O)CCC(=O)Nc2cccc3ncnc(Nc4ccc(Cl)c(Cl)c4)c23)O[C@@H]2O[C@]3(C)CC[C@H]4[C@H](C)CC[C@@H]1[C@@]24OO3`, which EC50 (Plasmodium falciparum [5]; read-out: EC50) is on record?
The EC50 was 2.4 nM.

With `C1CCCC2(CC1)OOC1(CCN(c3nc(N4CCOCC4)nc(N4CCOCC4)n3)CC1)OO2` as the compound, how does the IC50 (Plasmodium falciparum [5]) read?
Its IC50 is 5.71 nM.

For `C[C@H]1[C@@H](OCc2ccc(C(=O)O)cc2)O[C@@H]2O[C@@]3(C)CC[C@H]4[C@H](C)CC[C@@H]1[C@@]24OO3`, which EC50 (Plasmodium falciparum [5]; [15]) is on record?
The EC50 was 4 ng/mL.

And the IC50 (Plasmodium falciparum [1])?
Its IC50 is 6 nM.

And the EC50 (Plasmodium falciparum [1]; [15])?
Its EC50 is 1.4 ng/mL (≈ 3.35 nM).

What about the IC50 (Plasmodium falciparum [2]) of the same compound?
Its IC50 is 6 nM.

What about the “Ratio IC50” value (Plasmodium falciparum [3]) of the same compound?
Its value is 0.75.

For `C[C@H]1[C@@H](OC(=O)CCC(=O)Oc2ccc(Nc3ncnc4ccccc34)cc2)O[C@@H]2O[C@]3(C)CC[C@H]4[C@H](C)CC[C@@H]1[C@@]24OO3`, which EC50 (Plasmodium falciparum [5]; read-out: EC50) is on record?
Its EC50 is 3.8 nM.

Which IC50 (Plasmodium falciparum [12]) does the source give for `CC(C)CN(NC(=O)C1CCC2(CC1)OOC1(OO2)C2CC3CC(C2)CC1C3)c1ccnc(C#N)n1` (stereo unspecified) here?
The IC50 was 9.8 nM.

For `C[C@@H]1CC[C@H]2[C@@H](C)C(OC(=O)CCC(=O)O)(C(F)(F)F)O[C@@H]3O[C@]4(C)CC[C@@H]1[C@]32OO4` (stereo partly specified), which IC50 (Plasmodium falciparum [11]) is on record?
The IC50 was 4.1 nM.

What about the half-life [14] of the same compound?
The half-life was 1.25 days.
